Data taken from PubChem BioAssay (NCI).
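Dose response: 5 concentrations. Exposure: 48 h. Format: 96-well plates. Endpoint: linear interpolation; highest concentration if not reached. GI50 is the concentration that inhibits growth by half. The concentration for full growth arrest is given as TGI.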

Columns and labels:
Test in all cases: NCI-60 cell line screen, 48 h
786-0 renal = system: 786-0 renal
A498 renal = system: A498 renal
A549 NSCLC = system: A549 NSCLC
ACHN renal = system: ACHN renal
BT-549 breast = system: BT-549 breast
CAKI-1 renal = system: CAKI-1 renal
CCRF-CEM leukemia = system: CCRF-CEM leukemia
COLO 205 colon = system: COLO 205 colon
DU-145 prostate = system: DU-145 prostate
EKVX NSCLC = system: EKVX NSCLC
HCC-2998 colon = system: HCC-2998 colon
HCT-116 colon = system: HCT-116 colon
HCT-15 colon = system: HCT-15 colon
HL-60(TB) leukemia = system: HL-60(TB) leukemia
HOP-62 NSCLC = system: HOP-62 NSCLC
HS 578T breast = system: HS 578T breast
HT29 colon = system: HT29 colon
IGROV1 ovarian = system: IGROV1 ovarian
K-562 leukemia = system: K-562 leukemia
KM12 colon = system: KM12 colon
LOX IMVI melanoma = system: LOX IMVI melanoma
M14 melanoma = system: M14 melanoma
MALME-3M melanoma = system: MALME-3M melanoma
MCF7 breast = system: MCF7 breast
MDA-MB-231 breast = system: MDA-MB-231 breast
MDA-MB-435 = system: MDA-MB-435
MOLT-4 leukemia = system: MOLT-4 leukemia
NCI-H226 lung = system: NCI-H226 lung
NCI-H23 lung = system: NCI-H23 lung
NCI-H460 lung = system: NCI-H460 lung
NCI-H522 lung = system: NCI-H522 lung
NCI/ADR-RES ovarian = system: NCI/ADR-RES ovarian
OVCAR-4 ovarian = system: OVCAR-4 ovarian
OVCAR-5 ovarian = system: OVCAR-5 ovarian
OVCAR-8 ovarian = system: OVCAR-8 ovarian
SF-268 CNS = system: SF-268 CNS
SF-295 CNS = system: SF-295 CNS
SF-539 CNS = system: SF-539 CNS
SK-MEL-2 melanoma = system: SK-MEL-2 melanoma
SK-MEL-28 melanoma = system: SK-MEL-28 melanoma
SK-MEL-5 melanoma = system: SK-MEL-5 melanoma
SK-OV-3 ovarian = system: SK-OV-3 ovarian
SN12C renal = system: SN12C renal
SNB-19 CNS = system: SNB-19 CNS
SNB-75 CNS = system: SNB-75 CNS
SR leukemia = system: SR leukemia
SW-620 colon = system: SW-620 colon
T-47D breast = system: T-47D breast
TK-10 renal = system: TK-10 renal
U251 CNS = system: U251 CNS
UACC-257 melanoma = system: UACC-257 melanoma
UACC-62 melanoma = system: UACC-62 melanoma
UO-31 renal = system: UO-31 renal
HOP-92 NSCLC = system: HOP-92 NSCLC
OVCAR-3 ovarian = system: OVCAR-3 ovarian
RPMI-8226 leukemia = system: RPMI-8226 leukemia
RXF 393 renal = system: RXF 393 renal

SMILES: CC(=O)Nc1ccc2c(c1)[nH]c(=O)c1cc(Cl)ccc12
- TGI (786-0 renal): > 100 µM
- TGI (A498 renal): > 100 µM
- TGI (A549 NSCLC): > 100 µM
- TGI (ACHN renal): > 100 µM
- TGI (BT-549 breast): > 100 µM
- TGI (CAKI-1 renal): 8.4 µM
- TGI (CCRF-CEM leukemia): 13.4 µM
- TGI (COLO 205 colon): > 100 µM
- TGI (DU-145 prostate): > 100 µM
- TGI (EKVX NSCLC): > 100 µM
- TGI (HCC-2998 colon): > 100 µM
- TGI (HCT-116 colon): > 100 µM
- TGI (HCT-15 colon): > 100 µM
- TGI (HL-60(TB) leukemia): > 100 µM
- TGI (HOP-62 NSCLC): > 100 µM
- TGI (HS 578T breast): > 100 µM
- TGI (HT29 colon): 41.5 µM
- TGI (IGROV1 ovarian): > 100 µM
- TGI (K-562 leukemia): > 100 µM
- TGI (KM12 colon): > 100 µM
- TGI (LOX IMVI melanoma): > 100 µM
- TGI (M14 melanoma): > 100 µM
- TGI (MALME-3M melanoma): 46.7 µM
- TGI (MCF7 breast): 77.7 µM
- TGI (MDA-MB-231 breast): > 100 µM
- TGI (MDA-MB-435): > 100 µM
- TGI (MOLT-4 leukemia): 8.53 µM
- TGI (NCI-H226 lung): 90.4 µM
- TGI (NCI-H23 lung): > 100 µM
- TGI (NCI-H460 lung): 52.9 µM
- TGI (NCI-H522 lung): > 100 µM
- TGI (NCI/ADR-RES ovarian): > 100 µM
- TGI (OVCAR-4 ovarian): > 100 µM
- TGI (OVCAR-5 ovarian): > 100 µM
- TGI (OVCAR-8 ovarian): 64.9 µM
- TGI (SF-268 CNS): > 100 µM
- TGI (SF-295 CNS): > 100 µM
- TGI (SF-539 CNS): > 100 µM
- TGI (SK-MEL-2 melanoma): > 100 µM
- TGI (SK-MEL-28 melanoma): > 100 µM
- TGI (SK-MEL-5 melanoma): > 100 µM
- TGI (SK-OV-3 ovarian): > 100 µM
- TGI (SN12C renal): > 100 µM
- TGI (SNB-19 CNS): > 100 µM
- TGI (SNB-75 CNS): > 100 µM
- TGI (SR leukemia): 18.4 µM
- TGI (SW-620 colon): > 100 µM
- TGI (T-47D breast): > 100 µM
- TGI (TK-10 renal): 60.4 µM
- TGI (U251 CNS): > 100 µM
- TGI (UACC-257 melanoma): 59.5 µM
- TGI (UACC-62 melanoma): > 100 µM
- TGI (UO-31 renal): > 100 µM

SMILES: OCCN1CCCN(CCCN2c3ccccc3Sc3ccc(C(F)(F)F)cc32)CC1
- GI50 (786-0 renal): 2.21 µM
- TGI (786-0 renal): 5.25 µM
- GI50 (A498 renal): 1.69 µM
- TGI (A498 renal): 5.63 µM
- GI50 (A549 NSCLC): 4.69 µM
- TGI (A549 NSCLC): 15.6 µM
- GI50 (ACHN renal): 3.56 µM
- TGI (ACHN renal): 13.4 µM
- GI50 (BT-549 breast): 5.93 µM
- TGI (BT-549 breast): 20.4 µM
- GI50 (CAKI-1 renal): 2.3 µM
- TGI (CAKI-1 renal): 6.26 µM
- GI50 (CCRF-CEM leukemia): 2.42 µM
- TGI (CCRF-CEM leukemia): 5.76 µM
- GI50 (COLO 205 colon): 1.94 µM
- TGI (COLO 205 colon): 3.68 µM
- GI50 (DU-145 prostate): 5.61 µM
- TGI (DU-145 prostate): 17.8 µM
- GI50 (HCC-2998 colon): 1.81 µM
- TGI (HCC-2998 colon): 3.33 µM
- GI50 (HCT-116 colon): 2.1 µM
- TGI (HCT-116 colon): 4.49 µM
- GI50 (HCT-15 colon): 2.74 µM
- TGI (HCT-15 colon): 10.3 µM
- GI50 (HL-60(TB) leukemia): 1.91 µM
- TGI (HL-60(TB) leukemia): 3.74 µM
- GI50 (HOP-62 NSCLC): 2.25 µM
- TGI (HOP-62 NSCLC): 5.05 µM
- GI50 (HOP-92 NSCLC): 1.73 µM
- TGI (HOP-92 NSCLC): 7.63 µM
- GI50 (HS 578T breast): 2.04 µM
- TGI (HS 578T breast): 5.89 µM
- GI50 (HT29 colon): 1.76 µM
- TGI (HT29 colon): 3.75 µM
- GI50 (IGROV1 ovarian): 2.68 µM
- TGI (IGROV1 ovarian): 7.22 µM
- GI50 (K-562 leukemia): 1.57 µM
- TGI (K-562 leukemia): 3.23 µM
- GI50 (KM12 colon): 2.27 µM
- TGI (KM12 colon): 4.69 µM
- GI50 (LOX IMVI melanoma): 1.73 µM
- TGI (LOX IMVI melanoma): 3.21 µM
- GI50 (M14 melanoma): 1.97 µM
- TGI (M14 melanoma): 3.9 µM
- GI50 (MALME-3M melanoma): 2.02 µM
- TGI (MALME-3M melanoma): 3.82 µM
- GI50 (MCF7 breast): 1.6 µM
- TGI (MCF7 breast): 3.14 µM
- GI50 (MDA-MB-231 breast): 2.31 µM
- TGI (MDA-MB-231 breast): 6.15 µM
- GI50 (MDA-MB-435): 1.67 µM
- TGI (MDA-MB-435): 3.33 µM
- GI50 (MOLT-4 leukemia): 2.39 µM
- TGI (MOLT-4 leukemia): 5.2 µM
- GI50 (NCI-H226 lung): 15.1 µM
- TGI (NCI-H226 lung): 39.1 µM
- GI50 (NCI-H460 lung): 1.95 µM
- TGI (NCI-H460 lung): 3.77 µM
- GI50 (NCI-H522 lung): 3.23 µM
- TGI (NCI-H522 lung): 14 µM
- GI50 (NCI/ADR-RES ovarian): 3.57 µM
- TGI (NCI/ADR-RES ovarian): 14.7 µM
- GI50 (OVCAR-3 ovarian): 3.84 µM
- TGI (OVCAR-3 ovarian): 13.9 µM
- GI50 (OVCAR-4 ovarian): 3.11 µM
- TGI (OVCAR-4 ovarian): 13.4 µM
- GI50 (OVCAR-5 ovarian): 3.21 µM
- TGI (OVCAR-5 ovarian): 15 µM
- GI50 (OVCAR-8 ovarian): 3.46 µM
- TGI (OVCAR-8 ovarian): 12.2 µM
- GI50 (RPMI-8226 leukemia): 2.21 µM
- TGI (RPMI-8226 leukemia): 4.46 µM
- GI50 (RXF 393 renal): 2.59 µM
- TGI (RXF 393 renal): 11.2 µM
- GI50 (SF-268 CNS): 3.6 µM
- TGI (SF-268 CNS): 15.5 µM
- GI50 (SF-295 CNS): 1.76 µM
- TGI (SF-295 CNS): 3.74 µM
- GI50 (SF-539 CNS): 1.67 µM
- TGI (SF-539 CNS): 3.12 µM
- GI50 (SK-MEL-2 melanoma): 2.07 µM
- TGI (SK-MEL-2 melanoma): 4.08 µM
- GI50 (SK-MEL-28 melanoma): 1.64 µM
- TGI (SK-MEL-28 melanoma): 3.03 µM
- GI50 (SK-MEL-5 melanoma): 1.67 µM
- TGI (SK-MEL-5 melanoma): 3.09 µM
- GI50 (SK-OV-3 ovarian): 5.29 µM
- TGI (SK-OV-3 ovarian): 18.4 µM
- GI50 (SN12C renal): 4.5 µM
- TGI (SN12C renal): 18.5 µM
- GI50 (SNB-19 CNS): 2.84 µM
- TGI (SNB-19 CNS): 11.7 µM
- GI50 (SNB-75 CNS): 1.21 µM
- TGI (SNB-75 CNS): 8.51 µM
- GI50 (SR leukemia): 2.18 µM
- TGI (SR leukemia): 4.75 µM
- GI50 (SW-620 colon): 1.86 µM
- TGI (SW-620 colon): 4.15 µM
- GI50 (T-47D breast): 2.21 µM
- TGI (T-47D breast): 5.39 µM
- GI50 (TK-10 renal): 1.68 µM
- TGI (TK-10 renal): 3.58 µM
- GI50 (U251 CNS): 2.04 µM
- TGI (U251 CNS): 4.32 µM
- GI50 (UACC-257 melanoma): 1.94 µM
- TGI (UACC-257 melanoma): 3.65 µM
- GI50 (UO-31 renal): 2.3 µM
- TGI (UO-31 renal): 10.6 µM
